Measurements taken from patent publication US20100298256A1, “ANTIVIRAL COMPOUNDS” (priority 2007, published 2010).

Assays:
AVA5 and APC103 cultures = assay: Cytotoxicity by neutral red dye uptake in the HCV replicon cultures; type: cell-based; details: at the concentrations used for the antiviral analyses
Protocol: (§1) Antiviral activity of the test compounds was assessed (Okuse et al., 2005, Antivir. Res. 65:23) in the stably HCV replicating line, AVA5 (genotype 1b, subgenomic, replicon, Blight et al., 2000, Sci. 290: 1972) and APC 103 ((genotype 1a, genomic replicon). (ODE) phosphodiester ribavirin prodrug were added to dividing cultures daily for three days. Cultures generally start the assay at 30-50% confluence and reach confluence during the last day of treatment. Intracellular HCV RNA levels and cytotoxicity (on 96 well plates) were used. A total of 12 untreated control cultures and triplicate cultures treated with α-interferon and 2′CmeC served as assay controls.
(§2) Triplicate cultures for HCV RNA levels were measured using a conventional blot hybridization method in which HCV RNA levels were normalized to the levels of β-actin RNA in each individual culture (Okuse et al., 2005, Antivir. Res. 65:23). Cytotoxicity was measured using an established neutral red dye uptake assay (Korba et al., 1992, Antivir. Res. 19:55, Okuse et al., Antivir. Res. 65:23). Test compounds were received as powders on dry ice and were dissolved in 100% tissue culture grade DMSO (Sigma, Inc.) at 10 mM. Aliquots of test compounds sufficient for one daily treatment were made in individual tubes and all material was stored at −20° C. […]

[1] = Pharmacokinetic study after single oral and intravenous administration in male CD-1 mice
Protocol: (§4) Plasma samples were collected at pre-dose, 1, 3, 6, 12, 24, 48, and 72 hours post-dose for P.O. treatment group and at pre-dose, 0.25, 2, 6, 12, 24, 48, and 72 hours post-dose for I.V. treatment group. All samples were collected within ±2 minutes of the targeted time.
(§5) Phenolphthalein was used as an internal standard. […] The samples were mixed by vortexing for 5 minutes, and centrifuged at 15,000 rpm at 4° C. for 10 minutes. A 150-μL aliquot of the supernatant was transferred to a 96-well plate and 10 uL of supernatant sample was injected into the LC-MS/MS system for analysis. In each analytical batch, PK samples were run concurrently with calibration standards (blank, 0, 5, 10, 25, 50, 100, 150, 300, and 500 ng/mL), and low, mid, high, and 10-fold dilution QC samples (15, 250, 400, and 2000 ng/m L).
A 1/Y^2 weighting factor was used.

[2] = CytoTox-ONE LDH release cytotoxicity assay, PBMC; type: cell-based; details: PBMC cells, read-out: TC50 (toxic concentration decreasing cell viability by 50%)
Protocol: (§3) CytoTox-ONE™ homogeneous membrane integrity assay kits (Promega) was used in the cytotoxicity studies. The assay measured the release of lactate dehyrodegenase (LDH) from cells with damaged membranes in a fluorometric, homogeneous format. […] The amount of fluorescence produced is proportional to the number of lysed cells. The cytotoxicity assessment assay was performed using a designed plate format […] for allocation of media, drug, cells, and virus in a 96 well plate. Six serially diluted concentrations of octadecyl-ethanediol-modified (ODE) phosphodiester Ribavirin prodrug was applied to the cells to derive the TC50 (toxic concentration of the drug decreasing the cell viability by 50%), TC90 (toxic concentration of the drug decreasing the cell viability by 90%) and TC95 (toxic concentration of the drug decreasing the cell viability by 95%) values.

PBMC cells = assay: CytoTox-ONE LDH release cytotoxicity assay, PBMC; type: cell-based
Protocol: as §3

influenza A [3] = assay: microbe, parasite or virus in culture; details: MDCK, read-out: IC50 (minimum inhibitory drug concentration which reduces the CPE by 50%)
influenza A [4] = tested on: influenza A
[5] = tested on: HCV replicon AVA5 (genotype 1b, subgenomic replicon); assay: HCV replication in cell culture, AVA5 replicon line (blot hybridization of HCV RNA); type: cell-based; details: AVA5 cultures, daily treatment for three days, normalized to β-actin RNA
Protocol: as §1, §2

[6] = CytoTox-ONE LDH release cytotoxicity assay, CEM; type: cell-based; details: human, CEM cells, read-out: TC50 (toxic concentration decreasing cell viability by 50%)
Protocol: as §3

CEM cells = assay: CytoTox-ONE LDH release cytotoxicity assay, CEM; type: cell-based
Protocol: as §3

[7] = tested on: HCV replicon APC103 (genotype 1a, genomic replicon); assay: HCV replication in cell culture, APC103 replicon line (blot hybridization of HCV RNA); type: cell-based; details: APC103 cultures, daily treatment for three days, normalized to β-actin RNA
Protocol: as §1, §2

[8] = CytoTox-ONE LDH release cytotoxicity assay, HepG2; type: cell-based; details: human, HepG2 cells, read-out: TC50 (toxic concentration decreasing cell viability by 50%)
Protocol: as §3

HepG2 cells = assay: CytoTox-ONE LDH release cytotoxicity assay, HepG2; type: cell-based
Protocol: as §3

in vivo = details: male, CD-1, mouse, plasma
Protocol: as §4, §5
A 1/Y^2 weighting factor was used.

in vitro = details: dog

Question: Which “toxicity (significant = greater than 50% depression of the dye uptake levels observed in untreated cells)” value (AVA5 and APC103 cultures) does the source give for `NC(=O)c1ncn([C@@H]2O[C@H](CO)[C@@H](O)[C@H]2O)n1` [ribavirin, reference compound] here?
Answer: Significant toxicity

Question: With `CCCCCCCCCCCCCCCCCCOCCOP(=O)(O)OC[C@H]1O[C@@H](n2cnc(C(N)=O)n2)[C@H](O)[C@@H]1O` [(ODE) phosphodiester ribavirin prodrug, 1-(5-O-{hydroxy[2-(octadecyloxy)ethoxy]phosphoryl}-beta-D-ribofuranosyl)-1H-1,2,4-triazole-3-carboxamide] as the molecule, how does the “plasma levels (below LLOQ)” value ([1]; IV 5 mg/kg, from 12 hours to 72 hours post-dose) read?
Answer: < 5 ng/mL

Question: What about the “plasma levels (below LLOQ)” value ([1]; PO 30 mg/kg, from 24 hours to 72 hours post-dose) of the same molecule?
Answer: < 5 ng/mL

Question: What about the “toxicity (significant = greater than 50% depression of the dye uptake levels observed in untreated cells)” value (AVA5 and APC103 cultures) of the same molecule?
Answer: No significant toxicity

Question: What about the CC50 [2] of the same molecule?
Answer: 111 µM

Question: And the “TC90 (toxic concentration decreasing cell viability by 90%)” value (PBMC cells)?
Answer: 245 µM

Question: What about the “TC95 (toxic concentration decreasing cell viability by 95%)” value (PBMC cells) of the same molecule?
Answer: 272 µM

Question: And the IC50 (influenza A [3])?
Answer: < 316 nM

Question: What about the “therapeutic index (TI50 = TC50 / IC50)” value (influenza A [4]) of the same molecule?
Answer: greater than 210

Question: And the “intracellular HCV RNA levels” value [5]?
Answer: selective reductions in intracellular HCV RNA levels

Question: And the CC50 [6]?
Answer: 14.1 µM

Question: And the “TC90 (toxic concentration decreasing cell viability by 90%)” value (CEM cells)?
Answer: 63.41 µM

Question: And the “TC95 (toxic concentration decreasing cell viability by 95%)” value (CEM cells)?
Answer: 84.55 µM

Question: What about the “intracellular HCV RNA levels” value [7] of the same molecule?
Answer: selective reductions in intracellular HCV RNA levels

Question: What about the CC50 [8] of the same molecule?
Answer: 13.2 µM

Question: And the “TC90 (toxic concentration decreasing cell viability by 90%)” value (HepG2 cells)?
Answer: 28.32 µM

Question: What about the “TC95 (toxic concentration decreasing cell viability by 95%)” value (HepG2 cells) of the same molecule?
Answer: 41.69 µM

Question: And the AUC(0-inf) (in vivo; iv, 5 mg/kg)?
Answer: 2660 ng·h/mL

Question: What about the AUC(0-t) (in vivo; iv, 5 mg/kg) of the same molecule?
Answer: 2640 ng·h/mL

Question: And the Cmax (in vivo; iv, 5 mg/kg)?
Answer: 1960 ng/mL

Question: And the Tmax (in vivo; iv, 5 mg/kg)?
Answer: 0.25 h

Question: What about the clearance (in vivo; iv, 5 mg/kg) of the same molecule?
Answer: 31.3 mL/min/kg

Question: What about the half-life (in vivo; iv, 5 mg/kg) of the same molecule?
Answer: 67.8 min

Question: And the bioavailability (in vivo; oral, 30 mg/kg)?
Answer: 10.7%

Question: What about the AUC(0-inf) (in vivo; po, 30 mg/kg) of the same molecule?
Answer: 1700 ng·h/mL

Question: And the AUC(0-t) (in vivo; po, 30 mg/kg)?
Answer: 1660 ng·h/mL

Question: And the Cmax (in vivo; po, 30 mg/kg)?
Answer: 407 ng/mL

Question: And the Tmax (in vivo; po, 30 mg/kg)?
Answer: 3 h

Question: What about the CC50 (in vitro) of the same molecule?
Answer: 66.4 µM
